Results as given in US8871681B2, “Herbicidal compositions comprising 4-amino-3-chloro-5-fluoro-6-(4-chloro-2-fluoro-3-methoxyphenyl) pyridine-2-carboxylic acid or a derivative thereof and certain sulfonylureas” (Dow AgroSciences LLC, priority 2012, dated 2014).

Key:
[1] = tested on: ECHOR (Echinochloa oryzoides, early watergrass); experiment: In-water applied weed control, transplanted paddy rice, greenhouse (Example II); format: in vivo, Echinochloa oryzoides (Ard.) Fritsch
Description: (§1) Weed seeds or nutlets of the desired test plant species were planted in puddled soil (mud) prepared by mixing a shredded, non-sterilized mineral soil (50.5 percent silt, 25.5 percent clay, and 24 percent sand, with a pH of about 7.6 and an organic matter content of about 2.9 percent) and water at a 1:1 volumetric ratio. The prepared mud was dispensed in 365 mL aliquots into 16-ounce (oz.) non-perforated plastic pots with a surface area of 86.59 square centimeters (cm^2) leaving a headspace of 3 centimeters (cm) in each pot. Rice seeds were planted in Sun Gro MetroMix® 306 planting mixture, which typically has a pH of 6.0 to 6.8 and an organic matter content of about 30 percent, in plastic plug trays. Seedlings at the second or third leaf stage of growth were transplanted into 860 mL of mud contained in 32-oz. non-perforated plastic pots with a surface area of 86.59 cm^2 4 days prior to herbicide application. The paddy was created by filling the headspace of the pots with 2.5 to 3 cm of water. When required to ensure good germination and healthy plants, a fungicide treatment and/or other chemical or physical treatment was applied. The plants were grown for 4-22 days in a greenhouse with an approximate 14 h photoperiod which was maintained at about 29′C during the day and 26° C. during the night. Nutrients were added as Osmocote® (19:6:12, N:P:K+minor nutrients) at 2 g per 16-oz. pot and 4 g per 32-oz. pot. Water was added on a regular basis to maintain the paddy flood, and supplemental lighting was provided with overhead metal halide 1000-Watt lamps as necessary. The plants were employed for testing when they reached the first through fourth true leaf stage.
(§2) Treatments consisted of the acid or esters of 4-amino-3-chloro-5-fluoro-6-(4-chloro-2-fluoro-3-methoxy-phenyl)pyridine-2-carboxylic acid (compound A) each formulated as an SC and various herbicidal components alone and in combination. Forms of compound A were applied on an acid equivalent basis.
(§3) Other herbicidal components were applied on an active ingredient basis and included acetolactate synthase (ALS)-inhibiting herbicides (sulfonylurea chemical class), azimsulfuron formulated as Gulliver®, bensulfuron-methyl formulated as Londax® 60DF, cyclosulfamuron (technical grade materail), ethoxysulfuron formulated as Sunrice® 15 WDG, flucetosulfuron formulated as Sukedachi® 1KG G, imazosulfuron formulated as Brazzos®, metsulfuron-methyl formulated as Lorate®, nicosulfuron formulated as Accent®, orthosulfamuron formulated as Strada® WG, propyrisulfuron formulated as Zeta One®, and rimsulfuron formulated as Matrix® WG.
(§4) Treatment requirements for each compound or herbicidal component were calculated based upon the rates being tested, the concentration of active ingredient or acid equivalent in the formulation, an application volume of 2 mL per component per pot, and an application area of 86.59 cm^2 per pot.
(§5) For formulated compounds, a measured amount was placed in an individual 100 or 200 mL glass vial and was dissolved in a volume of 1.25% (v/v) Agri-Dex® crop oil concentrate to obtain application solutions.
(§6) For technical grade compounds, a weighed amount was placed in an individual 100 to 200 mL glass vial and was dissolved in a volume of acetone to obtain concentrated stock solutions. […] The concentrated stock solutions obtained were diluted with an equivalent volume of an aqueous mixture containing 2.5% (v/v) crop oil concentrate so that the final application solutions contained 1.25% (v/v) crop oil concentrate.
(§7) Applications were made by injecting with a pipetter appropriate amounts of the application solutions, individually and sequentially, into the aqueous layer of the paddy. Control plants were treated in the same manner with the solvent blank. Applications were made so that all treated plant material received the same concentrations of acetone and crop oil concentrate. […]

[2] = tested on: CYPIR (Cyperus iria, rice flatsedge); experiment: Postemergence foliar-applied weed control, direct seeded rice, greenhouse (Example I); format: in vivo, Cyperus iria L.; conditions: 22 DAA
Excerpt: (§8) Seeds or nutlets of the desired test plant species were planted in a soil matrix prepared by mixing a loam or sandy loam soil (e.g., 28.6 percent silt, 18.8 percent clay, and 52.6 percent sand, with a pH of about 5.8 and an organic matter content of about 1.8 percent) and calcareous grit in an 80 to 20 ratio. The soil matrix was contained in plastic pots with a volume of 1 quart and a surface area of 83.6 square centimeters (cm^2). When required to ensure good germination and healthy plants, a fungicide treatment and/or other chemical or physical treatment was applied. The plants were grown for 8-22 days in a greenhouse with an approximate 14 h photoperiod which was maintained at about 29° C. during the day and 26° C. during the night. Nutrients (Peters Excel® 15-5-15 5-Ca 2-Mg and iron chelate) were applied in the irrigation solution as needed and water was added on a regular basis. Supplemental lighting was provided with overhead metal halide 1000-Watt lamps as necessary. The plants were employed for testing when they reached the first through fourth true leaf stage.
(§9) Treatments consisted of the acid or esters of 4-amino-3-chloro-5-fluoro-6-(4-chloro-2-fluoro-3-methoxy-phenyl)pyridine-2-carboxylic acid (Compound A), each formulated as an SC, and various herbicidal components alone and in combination. Forms of compound A were applied on an acid equivalent basis.
(§10) Other herbicidal components were applied on an active ingredient basis and included acetolactate synthase (ALS)-inhibiting herbicides (sulfonylurea chemical class) azimsulfuron formulated as Gulliver®, bensulfuron-methyl formulated as Londax® 60DF, cyclosulfamuron (technical material), ethoxysulfuron formulated as Sunrice® 15 WDG, flazasulfuron formulated as Katana®, flucetosulfuron formulated as Sukedachi® 1KG G, foramsulfuron formulated as Option®, imazosulfuron formulated as Brazzos® WG, iodosulfuron-methyl-sodium formulated as Hussar®, metsulfuron-methyl formulated as Lorate®, nicosulfuron formulated as Accent®, orthosulfamuron formulated as Strada® WG, primisulfuron-methyl (technical material), propyrisulfuron formulated as Zeta One®, rimsulfuron formulated as Matrix® WG, sulfometuron-methyl formulated as Oust®, and trifloxysulfuron-sodium formulated as Monument® 75WG.
(§11) Treatment requirements were calculated based upon the rates being tested, the concentration of active ingredient or acid equivalent in the formulation, and a 12 mL application volume at a rate of 187 L/ha.
(§12) For treatments comprised of formulated compounds, measured amounts of compounds were placed individually in 25 mL glass vials and diluted in a volume of 1.25% (v/v) Agri-Dex® crop oil concentrated to obtain 12× stock solutions. […] Application solutions were prepared by adding an appropriate amount of each stock solution (e.g., 1 mL) and diluted to the appropriate final concentrations with the addition of 10 mL of an aqueous mixture of 1.25% (v/v) crop oil concentrate so that the final spray solutions contained 1.25+/−0.05% (v/v) Agrcrop oil concentrate.
(§13) For treatments comprised of formulated and technical compounds, weighed amounts of the technical materials were placed individually in 25 mL glass vials and dissolved in a volume of 97:3 v/v acetone/DMSO to obtain 12× stock solutions, and measured amounts of the formulated compounds were placed individually in 25 mL glass vials and diluted in a volume of 1.25% (v/v) crop oil concentrate to obtain 12× stock solutions. […] Application solutions were prepared by adding an appropriate amount of each stock solution (e.g., 1 mL) and diluted to the appropriate final concentrations with the addition of an appropriate amount of an aqueous mixture of 1.5% (v/v) crop oil concentrate so that the final spray solutions contained 1.25% (v/v) crop oil concentrate. […]

[3] = tested on: ISCRU (Ischaemum rugosum, saramollagrass); experiment: as above; format: in vivo, Ischaemum rugosum Salisb.; conditions: 21 DAA
Excerpt: as §8, §9, §10, §11, §12, §13

[4] = tested on: LEFCH (Leptochloa chinensis, Chinese sprangletop); experiment: In-water applied weed control, transplanted paddy rice, greenhouse (Example II); format: in vivo, Leptochloa chinensis (L.) Nees
Description: as §1, §2, §3, §4, §5, §6, §7

[5] = tested on: BRAPP (Brachiaria platyphylla, broadleaf signalgrass); experiment: Postemergence foliar-applied weed control, direct seeded rice, greenhouse (Example I); format: in vivo, Brachiaria platyphylla (Griseb.) Nash; conditions: Urochloa platyphylla, post-emergence, 528 h, 22 DAA, read-out: Visual Weed Control (%) Obs
Excerpt: as §8, §9, §10, §11, §12, §13

[6] = tested on: MATCH (Chamomilla chamomilla, scented mayweed); experiment: Post-emergence foliar-applied weed control in cereal crops, greenhouse (Example III); format: in vivo, Chamomilla chamomilla (L.) Rydb.; conditions: Table 55, after 20-22 days, 3 gai/ha alone
Description: (§14) Seeds of the desired test plant species were planted in Sun Gro MetroMix® 306 planting mixture, which typically has a pH of 6.0 to 6.8 and an organic matter content of about 30 percent, in plastic pots with a surface area of 103.2 square centimeters (cm^2). When required to ensure good germination and healthy plants, a fungicide treatment and/or other chemical or physical treatment was applied. The plants were grown for 7-36 days in a greenhouse with an approximate 14 hour photoperiod which was maintained at about 18° C. during the day and 17° C. during the night. Nutrients and water were added on a regular basis and supplemental lighting was provided with overhead metal halide 1000-Watt lamps as necessary. The plants were employed for testing when they reached the second or third true leaf stage.
(§15) Treatments consisted of the benzyl ester of 4-amino-3-chloro-5-fluoro-6-(4-chloro-2-fluoro-3-methoxy-phenyl)pyridine-2-carboxylic acid (Compound A), formulated as an SC (suspension concentrate), and a second cereal herbicide alone and in combination.
(§16) Measured aliquot of benzyl ester of 4-amino-3-chloro-5-fluoro-6-(4-chloro-2-fluoro-3-methoxy-phenyl)pyridine-2-carboxylic acid (Compound A) was placed in 25 milliliter (mL) glass vials and diluted in a volume of 1.25% (v/v) Agri-dex crop oil concentrated to obtain stock solutions. Compound requirements are based upon a 12 mL application volume at a rate of 187 liters per hectare (L/ha). Spray solutions of the second cereal herbicide and experimental compound mixtures were prepared by adding the stock solutions to the appropriate amount of dilution solution to form 12 mL spray solution with active ingredients in two- and three-way combinations. Formulated compounds were applied to the plant material with an overhead Mandel track sprayer equipped with an 8002E nozzle calibrated to deliver 187 L/ha over an application area of 0.503 square meters (m^2) at a spray height of 18 inches (46 cm) above average plant canopy. Control plants were sprayed in the same manner with the solvent blank.
(§17) The treated plants and control plants were placed in a greenhouse as described above and watered by sub-irrigation to prevent wash-off of the test compounds. After 20-22 days, the condition of the test plants as compared with that of the control plants was determined visually and scored on a scale of 0 to 100 percent where 0 corresponds to no injury and 100 corresponds to complete kill.
(§18) Colby's equation was used to determine the herbicidal effects expected from the mixtures (Colby, S. R. 1967. Calculation of the synergistic and antagonistic response of herbicide combinations. Weeds 15:20-22.).
(§19) The following equation was used to calculate the expected activity of mixtures containing two active ingredients, A and B: Expected=A+B−(A×B/100)

[7] = tested on: VERPE (Veronica persica, bird's-eye speedwell); experiment: as above; format: in vivo, Veronica persica Poir.
Description: as §14, §15, §16, §17, §18, §19

[8] = tested on: CIRAR (Cirsium arvense, Canada thistle); experiment: as above; format: in vivo, Cirsium arvense (L.) Scop.; conditions: foliar-applied, after 20-22 days
Description: as §14, §15, §16, §17, §18, §19

SMILES: CCOc1ccccc1OS(=O)(=O)NC(=O)Nc1nc(OC)cc(OC)n1 [Ethoxysulfuron, 2-ethoxyphenyl[[(4,6-dimethoxy-2-pyrimidinyl)amino]carbonyl]sulfamate, reference compound]
- Visual Weed Control (%) - 22 DAA ECHOR Obs ([1]; Table 34, 7.5 gai/ha alone): 10%
- Visual Weed Control (%) - 22 DAA ECHOR Obs ([1]; Table 35, 7.5 gai/ha alone): 10%
- Visual Weed Control (%) - 22 DAA ECHOR Obs ([1]; Table 35, 15 gai/ha alone): 20%
- Visual Weed Control (%) Obs ([2]; 7.5 gai/ha): 50%
- Visual Weed Control (%) Obs ([2]; 15 gai/ha): 50%
- Visual Weed Control (%) Obs ([2]; 30 gai/ha): 85%
- Visual Weed Control (%) Obs ([3]; 17.5 gai/ha): 0%
- Visual Weed Control (%) Obs ([3]; 70 gai/ha): 0%
- Visual Weed Control (%) - 22 DAA LEFCH Obs ([4]; Table 34, 15 gai/ha alone): 0%
- Visual Weed Control (%) - 22 DAA LEFCH Obs ([4]; Table 35, 7.5 gai/ha alone): 0%
- Visual Weed Control (%) - 22 DAA LEFCH Obs ([4]; Table 35, 15 gai/ha alone): 0%
- pest or weed control at 7.5 g/ha ([5]; 7.5 gai/ha): 0%
- pest or weed control at 15 g/ha ([5]; 15 gai/ha): 0%
- pest or weed control at 30 g/ha ([5]; 30 gai/ha): 0%

SMILES: COC(=O)c1ccc(CNS(C)(=O)=O)cc1S(=O)(=O)NC(=O)Nc1nc(OC)cc(OC)n1 [Mesosulfuron-methyl]
- Weed Control MATCH Obs [6]: 40%
- Weed Control VERPE Obs ([7]; Table 55, after 20-22 days, 3 gai/ha alone): 5%
- Weed Control CIRAR Obs ([8]; Table 55, 3 gai/ha alone): 78%

SMILES: COC(=O)c1ccc(C(F)(F)F)nc1S(=O)(=O)NC(=O)Nc1nc(OC)cc(OC)n1 [Flupyrsulfuron-methyl sodium]
- Weed Control VERPE Obs ([7]; Table 53, after 20-22 days, 5 gai/ha alone): 0%
- pest or weed control at 5 g/ha ([8]; Cirsium arvense, post-emergence, Table 53, 5 gai/ha alone, read-out: Weed Control CIRAR Obs): 75%
